One may read the EC50 as the concentration giving half of the maximal effect. Lower therefore signals greater potency.

The test system of assay [1] is Trachea. Put plainly: Inhibition of carbachol-induced contraction of Sprague-Dawley rat tracheal rings after 30 mins by isometric tension technique. Format: functional, tissue-based. The settings on record: 0.5 h.
The subject of assay [2] is Trachea. Put plainly: Inhibition of acetylcholine-induced contraction of Sprague-Dawley rat tracheal rings after 30 mins by isometric tension technique. In kind it is functional, tissue-based.

Structures are written as SMILES.

Take `CC(C)NC[C@H](O)c1ccc(O)c(O)c1` [LEVISOPRENALINE]: it took 130 nM to reach a half-maximal effect in the assay with Trachea [1] (EC50).
Still for that read-out and setting: the result for `C[C@@H]1O[C@@H](O[C@H]2[C@H](O[C@H]3CC[C@@]4(C)[C@@H](CC[C@]5(C)[C@@H]4CC=C4[C@@H]6CC(C)(C)CC[C@]6(C(=O)O)CC[C@]45C)[C@]3(C)CO)OC[C@H](O)[C@@H]2O)[C@H](O)[C@H](O)[C@H]1O` [ALPHA-HEDERIN] reads 1000 nM.
Consider `CO[C@@H]1C[C@H](O[C@H]2[C@@H](O)C[C@H](O[C@@H]3[C@@H](C)O[C@@H](O[C@H]4CC[C@@]5(C)C(=CC[C@@H]6C(=O)O[C@@H]7CO[C@]8(C)OC=C(CC[C@@H]65)[C@H]78)C4)C[C@H]3OC)O[C@@H]2C)O[C@@H](C)[C@@H]1O`, for which the inhibition result in the assay on Trachea [2] was “Dose-dependent effect”. The values for the EC50 in the assay on Trachea [2] (0.5 h) and in the assay with Trachea [1] were 850 nM and 480 nM, respectively.

These data come from ChEMBL document CHEMBL3232968, “Potent airway smooth muscle relaxant effect of cynatratoside B, a steroidal glycoside isolated from Cynanchum stauntonii” (J Nat Prod, 2014).
